In patent EP0363041A1 (priority 1988, dated 1990):
“And” between values parts separate entries of the source, which are not always exact repeats. Equal values may be shown once. Read-outs that look alike come from different tables or passages of the source.

Tests used:
Format in all cases: binding, mouse
MO-3 = test system: MO-3
[1] = test system: "antibody carrier" (monoclonal antibody of MO-3 strain); assay: Latex agglutination assay: competition with "normorphine carrier" for "antibody carrier"
MO-2 = test system: MO-2
MO-4 = test system: MO-4
MO-6 = test system: MO-6
MO-5 = test system: MO-5

## COC(=O)[C@H]1[C@@H](OC(=O)c2ccccc2)C[C@@H]2CC[C@H]1N2C [Cocaine, cocaine]
MO-3
  reactivity ratio with morphine, MO-3: < 0.001
[1]
  time at which polystyrene latex particles were observed to be agglutinated: 16 s and 13 s
MO-2
  reactivity ratio with morphine, MO-2: < 1.0
MO-4
  reactivity ratio with morphine, MO-4: < 0.001
MO-6
  reactivity ratio with morphine, MO-6: < 0.1
MO-5
  reactivity ratio with morphine, MO-5: < 0.001

## COc1ccc2c3c1O[C@H]1[C@@H](O)C=C[C@H]4[C@@H](C2)N(C)CC[C@@]341 [Codeine, codeine]
MO-3
  reactivity ratio with morphine, MO-3: < 0.1
MO-2
  reactivity ratio with morphine, MO-2: < 1.0
MO-4
  reactivity ratio with morphine, MO-4: < 0.1
MO-6
  reactivity ratio with morphine, MO-6: < 0.1
MO-5
  reactivity ratio with morphine, MO-5: < 0.1

## CCOc1ccc2c3c1O[C@H]1[C@@H](O)C=C[C@H]4[C@@H](C2)N(C)CC[C@@]341 [Ethylmorphine, ethylmorphine]
MO-3
  reactivity ratio with morphine, MO-3: < 0.01
[1]; 0.3 ppm in urine of healthy men, normorphine carrier of Example 5, 0 ppm gives 16 seconds
  time at which polystyrene latex particles were observed to be agglutinated: 16 s
[1]; 0.3 ppm in urine of healthy men, normorphine carrier of Example 6, 0 ppm gives 13 seconds
  time at which polystyrene latex particles were observed to be agglutinated: 13 s
MO-2
  reactivity ratio with morphine, MO-2: < 1.0
MO-4
  reactivity ratio with morphine, MO-4: < 0.01
MO-6
  reactivity ratio with morphine, MO-6: < 0.1
MO-5
  reactivity ratio with morphine, MO-5: < 0.01

## CN1CC[C@]23c4c5ccc(O[C@@H]6O[C@H](C(=O)O)[C@@H](O)[C@H](O)[C@H]6O)c4O[C@H]2[C@@H](O)C=C[C@H]3[C@H]1C5 [M - 3 - G, morphine-3-glucronide]
MO-3
  reactivity ratio with morphine, MO-3: 0.1
MO-2
  reactivity ratio with morphine, MO-2: 2.0
MO-4
  reactivity ratio with morphine, MO-4: 0.2
MO-6
  reactivity ratio with morphine, MO-6: 0.3
MO-5
  reactivity ratio with morphine, MO-5: 0.5

## CN1CC[C@]23c4c5ccc(O)c4O[C@H]2[C@@H](O[C@@H]2O[C@H](C(=O)O)[C@@H](O)[C@H](O)[C@H]2O)C=C[C@H]3[C@H]1C5 [M - 6 - G, morphine-6-glucronide]
MO-3
  reactivity ratio with morphine, MO-3: 0.6
MO-2
  reactivity ratio with morphine, MO-2: 440
MO-4
  reactivity ratio with morphine, MO-4: 0.9
MO-6
  reactivity ratio with morphine, MO-6: 1.0
MO-5
  reactivity ratio with morphine, MO-5: 0.9

## CCC(=O)C(CC(C)N(C)C)(c1ccccc1)c1ccccc1 (centres unmarked) [Methadone, methadone]
MO-3
  reactivity ratio with morphine, MO-3: < 0.001
MO-2
  reactivity ratio with morphine, MO-2: < 1.0
MO-4
  reactivity ratio with morphine, MO-4: < 0.001
MO-6
  reactivity ratio with morphine, MO-6: < 0.1
MO-5
  reactivity ratio with morphine, MO-5: < 0.001

## CN1CC[C@]23c4c5ccc(O)c4O[C@H]2[C@@H](O)C=C[C@H]3[C@H]1C5 [Morphine, morphine]
MO-3
  reactivity ratio with morphine, MO-3: 100
MO-2
  reactivity ratio with morphine, MO-2: 100
MO-4
  reactivity ratio with morphine, MO-4: 100
MO-6
  reactivity ratio with morphine, MO-6: 100
MO-5
  reactivity ratio with morphine, MO-5: 100
